Consider 47 compounds from ChEMBL document CHEMBL4011618, “Discovery of Potent, Selective Stem Cell Factor Receptor/Platelet Derived Growth Factor Receptor Alpha (c-KIT/PDGFRα) Dual Inhibitor for the Treatment of Imatinib-Resistant Gastrointestinal Stromal Tumors (GISTs)” (J Med Chem, 2017).

Test [1] deals with Vascular endothelial growth factor receptor 2 (Homo sapiens, UniProt P35968).
Description: Inhibition of VEGFR2 (unknown origin) using FAM-labeled peptide as substrate preincubated for 10 mins followed by substrate addition in presence of ATP by mobility shift assay
The target of test [2] is T1, Mast/stem cell growth factor receptor Kit (Homo sapiens, UniProt P10721).
Description: Inhibition of cKIT (unknown origin) using FAM-labeled peptide as substrate preincubated for 10 mins followed by substrate addition in presence of ATP by mobility shift assay
Test [3] addresses T2, Platelet-derived growth factor receptor alpha (Homo sapiens, UniProt P16234). Briefly: Inhibition of PDGFRalpha (unknown origin) using FAM-labeled peptide as substrate preincubated for 10 mins followed by substrate addition in presence of ATP by mobility shift assay.
Test [4] has as its target T1, Mast/stem cell growth factor receptor Kit. This is another data set of the same source.
Description: Inhibition of TEL-fused cKIT (unknown origin) expressed in mouse BAF3 cells assessed as cell growth inhibition after 72 hrs by cell titer-glo assay
Test [5] has as its system Platelet-derived growth factor receptor alpha (Homo sapiens), P16234 [T674I].
Description: Inhibition of TEL-fused PDGFRalpha T674I mutant (unknown origin) expressed in mouse BAF3 cells assessed as cell growth inhibition after 72 hrs by cell titer-glo assay
The test system of test [6] is Mast/stem cell growth factor receptor Kit (Homo sapiens), P10721 [T670I].
Description: Inhibition of TEL-fused cKIT T670I mutant (unknown origin) expressed in mouse BAF3 cells assessed as cell growth inhibition after 72 hrs by cell titer-glo assay
The target of test [7] is T2, Platelet-derived growth factor receptor alpha.
Description: Inhibition of TEL-fused PDGFRalpha (unknown origin) expressed in mouse BAF3 cells assessed as cell growth inhibition after 72 hrs by cell titer-glo assay

Sequence of Platelet-derived growth factor receptor alpha (Homo sapiens), P16234 [T674I] (P16234 whole entry T674I): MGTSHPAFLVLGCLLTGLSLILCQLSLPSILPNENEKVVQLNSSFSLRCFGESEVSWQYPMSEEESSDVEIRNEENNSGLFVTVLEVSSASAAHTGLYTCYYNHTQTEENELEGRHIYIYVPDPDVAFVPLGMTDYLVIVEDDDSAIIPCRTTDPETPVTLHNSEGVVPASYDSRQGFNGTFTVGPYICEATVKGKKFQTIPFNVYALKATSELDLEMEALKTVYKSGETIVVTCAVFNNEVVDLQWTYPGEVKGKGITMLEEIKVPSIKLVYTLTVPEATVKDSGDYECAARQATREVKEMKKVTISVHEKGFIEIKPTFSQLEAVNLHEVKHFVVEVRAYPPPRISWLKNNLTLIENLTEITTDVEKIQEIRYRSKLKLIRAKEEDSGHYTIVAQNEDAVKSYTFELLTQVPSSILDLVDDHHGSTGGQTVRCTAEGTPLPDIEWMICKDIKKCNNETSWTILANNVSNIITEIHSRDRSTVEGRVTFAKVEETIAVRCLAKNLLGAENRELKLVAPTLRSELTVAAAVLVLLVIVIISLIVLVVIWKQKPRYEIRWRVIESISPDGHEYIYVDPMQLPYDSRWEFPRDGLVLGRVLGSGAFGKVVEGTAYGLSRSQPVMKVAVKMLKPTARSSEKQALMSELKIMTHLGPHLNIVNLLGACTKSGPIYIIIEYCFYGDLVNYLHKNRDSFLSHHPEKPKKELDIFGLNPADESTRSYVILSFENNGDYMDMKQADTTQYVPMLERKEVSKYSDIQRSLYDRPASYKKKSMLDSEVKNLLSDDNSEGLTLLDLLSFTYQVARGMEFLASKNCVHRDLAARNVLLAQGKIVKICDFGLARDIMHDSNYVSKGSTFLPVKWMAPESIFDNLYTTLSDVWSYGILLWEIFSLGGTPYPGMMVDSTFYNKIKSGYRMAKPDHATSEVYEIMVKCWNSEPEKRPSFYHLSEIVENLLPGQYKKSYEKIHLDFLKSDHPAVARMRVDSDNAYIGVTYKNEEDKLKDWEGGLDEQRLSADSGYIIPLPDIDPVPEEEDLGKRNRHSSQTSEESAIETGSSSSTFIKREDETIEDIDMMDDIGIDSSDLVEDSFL
Sequence of Vascular endothelial growth factor receptor 2 (P35968 whole entry): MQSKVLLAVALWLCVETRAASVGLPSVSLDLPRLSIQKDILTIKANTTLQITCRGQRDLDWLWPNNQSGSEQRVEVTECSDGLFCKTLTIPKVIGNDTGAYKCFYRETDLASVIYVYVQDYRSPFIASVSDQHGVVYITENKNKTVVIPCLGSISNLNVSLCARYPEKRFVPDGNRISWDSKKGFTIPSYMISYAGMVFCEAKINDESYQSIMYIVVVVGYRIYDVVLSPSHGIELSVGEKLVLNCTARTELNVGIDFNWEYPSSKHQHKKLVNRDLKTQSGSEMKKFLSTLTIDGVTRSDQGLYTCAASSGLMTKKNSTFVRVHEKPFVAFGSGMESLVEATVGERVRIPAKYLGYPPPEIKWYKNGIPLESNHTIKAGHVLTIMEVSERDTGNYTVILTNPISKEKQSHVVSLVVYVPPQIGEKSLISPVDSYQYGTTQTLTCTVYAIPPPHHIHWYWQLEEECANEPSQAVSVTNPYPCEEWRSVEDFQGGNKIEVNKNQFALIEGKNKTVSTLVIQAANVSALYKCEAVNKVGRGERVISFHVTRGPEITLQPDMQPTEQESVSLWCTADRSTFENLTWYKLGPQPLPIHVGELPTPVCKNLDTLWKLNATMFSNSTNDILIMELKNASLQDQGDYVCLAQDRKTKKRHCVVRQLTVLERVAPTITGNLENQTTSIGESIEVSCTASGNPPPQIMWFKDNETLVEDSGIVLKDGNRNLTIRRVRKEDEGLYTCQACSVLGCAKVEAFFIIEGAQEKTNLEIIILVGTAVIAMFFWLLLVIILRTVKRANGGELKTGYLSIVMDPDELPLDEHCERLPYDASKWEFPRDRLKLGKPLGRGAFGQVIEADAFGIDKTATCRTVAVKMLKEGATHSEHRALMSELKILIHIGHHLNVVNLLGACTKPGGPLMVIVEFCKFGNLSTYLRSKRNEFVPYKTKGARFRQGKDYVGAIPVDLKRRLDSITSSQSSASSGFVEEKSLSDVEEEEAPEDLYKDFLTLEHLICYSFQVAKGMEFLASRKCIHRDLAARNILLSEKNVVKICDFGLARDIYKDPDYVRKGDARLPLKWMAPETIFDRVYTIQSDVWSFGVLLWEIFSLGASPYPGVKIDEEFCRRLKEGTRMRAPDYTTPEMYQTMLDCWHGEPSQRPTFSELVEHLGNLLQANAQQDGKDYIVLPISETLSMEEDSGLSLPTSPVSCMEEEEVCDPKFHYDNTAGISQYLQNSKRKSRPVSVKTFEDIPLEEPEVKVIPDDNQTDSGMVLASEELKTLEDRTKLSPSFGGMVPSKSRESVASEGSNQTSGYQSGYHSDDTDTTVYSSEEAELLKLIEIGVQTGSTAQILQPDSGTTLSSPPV
T2 sequence (P16234 whole entry): as the sequence (P16234 whole entry T674I) above, with I674T counted along it
T1 sequence (P10721 whole entry): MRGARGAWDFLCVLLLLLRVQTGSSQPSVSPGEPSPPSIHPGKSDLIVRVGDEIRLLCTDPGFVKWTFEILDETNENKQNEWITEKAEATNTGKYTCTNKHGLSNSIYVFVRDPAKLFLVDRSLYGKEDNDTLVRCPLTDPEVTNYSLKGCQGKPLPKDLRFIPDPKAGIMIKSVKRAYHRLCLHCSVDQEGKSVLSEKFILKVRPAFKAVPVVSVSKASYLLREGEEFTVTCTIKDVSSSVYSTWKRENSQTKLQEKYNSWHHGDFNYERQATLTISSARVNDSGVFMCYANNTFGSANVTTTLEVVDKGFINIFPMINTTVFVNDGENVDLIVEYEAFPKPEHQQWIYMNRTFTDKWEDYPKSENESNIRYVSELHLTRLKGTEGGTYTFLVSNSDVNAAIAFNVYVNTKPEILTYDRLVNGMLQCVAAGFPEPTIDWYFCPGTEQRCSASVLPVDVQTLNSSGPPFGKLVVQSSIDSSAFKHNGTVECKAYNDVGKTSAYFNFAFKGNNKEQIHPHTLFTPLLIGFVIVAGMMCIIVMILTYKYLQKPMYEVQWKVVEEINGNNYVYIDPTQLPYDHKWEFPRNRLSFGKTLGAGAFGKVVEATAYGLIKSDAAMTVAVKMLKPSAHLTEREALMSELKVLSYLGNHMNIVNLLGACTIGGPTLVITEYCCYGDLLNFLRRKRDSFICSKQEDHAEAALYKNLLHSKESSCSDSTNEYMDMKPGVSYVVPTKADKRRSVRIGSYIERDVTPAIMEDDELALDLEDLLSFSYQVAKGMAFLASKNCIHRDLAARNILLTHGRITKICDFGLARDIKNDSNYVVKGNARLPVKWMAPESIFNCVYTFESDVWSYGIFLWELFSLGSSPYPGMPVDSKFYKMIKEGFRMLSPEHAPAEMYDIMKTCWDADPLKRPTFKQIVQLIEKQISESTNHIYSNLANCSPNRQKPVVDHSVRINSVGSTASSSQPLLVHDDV
Sequence of Mast/stem cell growth factor receptor Kit (Homo sapiens), P10721 [T670I] (P10721 whole entry T670I): as the sequence (P10721 whole entry) above, with T670I counted along it

One may read the IC50 as the concentration at which inhibition is half-maximal. Regarding `CCc1cccc(NC(=O)Nc2ccc(-c3ccnc4[nH]nc(CO)c34)cc2)c1`, the IC50 in test [1] is 3360 nM; in test [2] it was 3.7 nM; in test [3] it was 32 nM.
The matching figures for `Cc1n[nH]c2nccc(-c3ccc(NC(=O)NC4CCCCC4)cc3)c12`: more than 50000 nM, more than 50000 nM and more than 50000 nM.
In general, GI50 refers to the concentration at which growth is held to half of that of the control. `CCCCCCNC(=O)Nc1ccc(-c2ccnc3[nH]nc(C)c23)cc1`: the GI50 in test [4] was 3030 nM; in test [5], 3180 nM; in test [6], 1780 nM; in test [7] it was 10.4 nM. Further, the IC50 in test [1] is 10500 nM; in test [2], 1.4 nM; in test [3] it was 27 nM.
As to `Cc1n[nH]c2nccc(-c3ccc(NC(=O)NCc4ccccn4)cc3)c12`, the 50% inhibitory concentration (IC50) in test [1] stood at 4080 nM; in test [2], 78 nM; in test [3], 472 nM.
For the compound `CCc1cccc(NC(=O)Nc2ccc(-c3ccnc4[nH]nc(C(F)(F)F)c34)cc2)c1`, the IC50 was more than 50000 nM in test [1], 6770 nM in test [2] and more than 5000 nM in test [3].
The matching figures for `Cc1n[nH]c2nccc(-c3ccc(NC(=O)NCC(C)C)cc3)c12`: 8630 nM, 320 nM and 1120 nM.
As for `Cc1n[nH]c2nccc(-c3ccc(NC(=O)Nc4ccc5ccccc5c4)cc3)c12`, the half-maximal inhibitory concentration (IC50) in test [1] is more than 50000 nM; in test [2], 20 nM; in test [3], 124 nM.
The matching figures for `Cc1n[nH]c2nccc(-c3ccc(NC(=O)Nc4cccc(N5CCN(C)CC5)c4)cc3)c12`: 6240 nM, 19 nM and 215 nM.
In the case of `Cc1n[nH]c2nccc(-c3ccc(NC(=O)Nc4cccc(Cl)c4)cc3)c12`, the 50% inhibitory concentration (IC50) in test [1] was determined as 4050 nM; in test [2], 2400 nM; in test [3] it was 182 nM.
Taken in the same sequence, the figures for `Cc1n[nH]c2nccc(-c3ccc(NC(=O)NC4CCC4)cc3)c12` were 5000 nM, 318 nM and 732 nM.
Consider `Cc1cc(N2CCN(C)CC2)ccc1NC(=O)Nc1ccc(-c2ccnc3[nH]nc(C)c23)cc1`, for which the IC50 was 6820 nM in test [1], 2220 nM in test [2] and 1100 nM in test [3].
As for `Cc1cccc(NC(=O)Nc2ccc(-c3ccnc4[nH]nc(C(F)(F)F)c34)cc2)c1`, the GI50 is more than 10000 nM in test [4], more than 10000 nM in test [5], more than 10000 nM in test [6] and 465 nM in test [7]. The IC50 in test [1], in test [2] and in test [3] was more than 50000 nM in each case.
With `Cc1n[nH]c2nccc(-c3ccc(NC(=O)Nc4ccn[nH]4)cc3)c12`, the IC50 in test [1] is 2390 nM; in test [2], 120 nM; in test [3] it was 411 nM.
The matching figures for `Cc1n[nH]c2nccc(-c3ccc(NC(=O)Nc4cccc(N(C)C)c4)cc3)c12`: 6920 nM, 2.6 nM and 83 nM.
With `Cc1n[nH]c2nccc(-c3ccc(NC(=O)NCCc4ccccc4)cc3)c12`, the IC50 amounted to 3.7 nM in test [2] and 82 nM in test [3].
With `Cc1cccc(NC(=O)Nc2ccc(-c3ccnc4[nH]nc(CO)c34)cc2)c1`, the GI50 in test [4] is 1070 nM; in test [5], 5000 nM; in test [6], 1840 nM; in test [7] it was 10.4 nM. Besides, the half-inhibitory concentration (IC50) in test [1] came to 4920 nM; in test [2], 2.4 nM; in test [3] it was 87 nM.
With `CCCCNC(=O)Nc1ccc(-c2ccnc3[nH]nc(C)c23)cc1`, the figures for the IC50 in test [1], in test [2] and in test [3] were more than 50000 nM, 20600 nM and 43900 nM, respectively.
As to `Cc1n[nH]c2nccc(-c3ccc(NC(=O)NC4Cc5ccccc5C4)cc3)c12`, the IC50 in test [1] is more than 50000 nM; in test [2] it was 8.7 nM; in test [3] it was 83 nM.
`Cc1n[nH]c2nccc(-c3ccc(NC(=O)Nc4cccc(F)c4)cc3)c12`: the half-maximal inhibitory concentration (IC50) in test [1] was 6230 nM; in test [2], 4790 nM; in test [3], 262 nM.
Take `Cc1n[nH]c2nccc(-c3ccc(NC(=O)Nc4ccc(N(C)C)cc4)cc3)c12`: the IC50 in test [1] is 9050 nM; in test [2], 9.3 nM; in test [3], 309 nM.
The matching figures for `Cc1ccc(N2CCOCC2)c(NC(=O)Nc2ccc(-c3ccnc4[nH]nc(C)c34)cc2)c1`: 26200 nM, 397 nM and 18900 nM.
The matching figures for `Cc1ccc(N2CCN(C)CC2)c(NC(=O)Nc2ccc(-c3ccnc4[nH]nc(C)c34)cc2)c1`: 3940 nM, 1950 nM and 1780 nM.
The matching figures for `Cc1n[nH]c2nccc(-c3ccc(NC(=O)Nc4cccc(C#N)c4)cc3)c12`: more than 50000 nM, 201 nM and 21400 nM.
`CCNC(=O)Nc1ccc(-c2ccnc3[nH]nc(C)c23)cc1`: the half-maximal inhibitory concentration (IC50) in test [1] is more than 50000 nM; in test [2] it was 38700 nM; in test [3] it was more than 50000 nM.
For the compound `Cc1n[nH]c2nccc(-c3ccc(NC(=O)Nc4ccccc4N4CCN(C)CC4)cc3)c12`, the IC50 amounted to 4160 nM in test [1], 4580 nM in test [2] and 928 nM in test [3].
In the case of `Cc1n[nH]c2nccc(-c3ccc(NC(=O)Nc4cnc5ccccc5c4)cc3)c12`, the concentration for 50% growth inhibition (GI50) in test [4] was 83.3 nM; in test [5] it was 1510 nM; in test [6], 217 nM; in test [7] it was 10.4 nM. Besides, the values for the concentration for half-maximal inhibition (IC50) in test [1], in test [2] and in test [3] were 1840 nM, 1.9 nM and 22 nM, respectively.
Take `CCCNC(=O)Nc1ccc(-c2ccnc3[nH]nc(C)c23)cc1`: the results for the IC50 in test [1], in test [2] and in test [3] were more than 50000 nM, 21400 nM and more than 50000 nM, respectively.
As to `Cc1n[nH]c2nccc(-c3ccc(NC(=O)Nc4cccnc4)cc3)c12`, the results for the 50% inhibitory concentration (IC50) in test [1], in test [2] and in test [3] were 3110 nM, 14 nM and 313 nM, respectively.
`Cc1n[nH]c2nccc(-c3ccc(NC(=O)Nc4ccccc4N4CCOCC4)cc3)c12`: the IC50 in test [1] is 36900 nM; in test [2], 6440 nM; in test [3] it was 4080 nM.
For the compound `Cc1n[nH]c2nccc(-c3ccc(NC(=O)NC4CCCC4)cc3)c12`, the GI50 is more than 10000 nM in test [4], more than 10000 nM in test [5], more than 10000 nM in test [6] and 13.3 nM in test [7]. Besides, the half-inhibitory concentration (IC50) in test [1] came to 6230 nM; in test [2] it was 144 nM; in test [3], 576 nM.
With `CCN(CC)c1cccc(NC(=O)Nc2ccc(-c3ccnc4[nH]nc(C)c34)cc2)c1`, the IC50 in test [1] was 42000 nM; in test [2] it was 12 nM; in test [3], 136 nM.
The matching figures for `Cc1n[nH]c2nccc(-c3ccc(NC(=O)NCc4ccco4)cc3)c12`: 3500 nM, 51 nM and 387 nM.
The matching figures for `Cc1n[nH]c2nccc(-c3ccc(NC(=O)Nc4ccccn4)cc3)c12`: more than 50000 nM, 20 nM and 401 nM.
Taken in the same sequence, the figures for `Cc1ccccc1NC(=O)Nc1ccc(-c2ccnc3[nH]nc(C)c23)cc1` were 4320 nM, 10900 nM and 305 nM.
Consider `CCN(CC)c1ccc(NC(=O)Nc2ccc(-c3ccnc4[nH]nc(C)c34)cc2)cc1`, for which the figures for the IC50 in test [1], in test [2] and in test [3] were 5350 nM, 12 nM and 176 nM, respectively.
For `Cc1ccc(NC(=O)Nc2ccc(-c3ccnc4[nH]nc(C)c34)cc2)cc1`, the IC50 in test [1] turned out to be 5610 nM; in test [2] it was 1830 nM; in test [3], 65 nM.
The matching figures for `Cc1n[nH]c2nccc(-c3ccc(NC(=O)Nc4cccc(CN(C)C)c4)cc3)c12`: 15900 nM, 22100 nM and 4610 nM.
As for `Cc1ccc(F)c(NC(=O)Nc2ccc(-c3cccc4[nH]nc(N)c34)cc2)c1` [LINIFANIB], the GI50 in test [4] stood at 88.7 nM; in test [5] it was 104 nM; in test [6] it was 37.1 nM; in test [7], 10.4 nM. For the same compound, in test [3], the IC50 amounted to 15 nM.
Consider `Cc1n[nH]c2nccc(-c3ccc(NC(=O)NC(C)(C)C)cc3)c12`, for which the half-inhibitory concentration (IC50) in test [1] was 11400 nM; in test [2] it was 1420 nM; in test [3], 1470 nM.
Taken in the same sequence, the figures for `Cc1n[nH]c2nccc(-c3ccc(NC(=O)NCCCCc4ccccc4)cc3)c12` were 10900 nM, 6.2 nM and 135 nM.
Taken in the same sequence, the figures for `Cc1n[nH]c2nccc(-c3ccc(NC(=O)NC4CC4)cc3)c12` were 4520 nM, 553 nM and 1130 nM.
The matching figures for `CCc1cccc(NC(=O)Nc2ccc(-c3ccnc4[nH]nc(C)c34)cc2)c1`: 1210 nM, 3.9 nM and 22 nM.
With `Cc1n[nH]c2nccc(-c3ccc(NC(=O)NCc4ccccc4)cc3)c12`, the IC50 in test [1] was more than 50000 nM; in test [2], 46100 nM; in test [3], more than 50000 nM.
As for `Cc1n[nH]c2nccc(-c3ccc(NC(=O)Nc4cccc5ccccc45)cc3)c12`, the values for the IC50 in test [1], in test [2] and in test [3] were more than 50000 nM, 3.6 nM and 97 nM, respectively.
For `Cc1n[nH]c2nccc(-c3ccc(NC(=O)NCc4cccs4)cc3)c12`, the results for the half-inhibitory concentration (IC50) in test [1], in test [2] and in test [3] were 1790 nM, 26 nM and 157 nM, respectively.
Taken in the same sequence, the figures for `CCCCCNC(=O)Nc1ccc(-c2ccnc3[nH]nc(C)c23)cc1` were more than 50000 nM, 3.5 nM and 164 nM.
Taken in the same sequence, the figures for `Cc1cc(NC(=O)Nc2ccc(-c3ccnc4[nH]nc(C)c34)cc2)ccc1N1CCN(C)CC1` were 3700 nM, 7.2 nM and 127 nM.
